Assay results reported in paper PMC6272854, “Two New Bioactive α-Pyrones from Hypericum japonicum” (Molecules, 2016).
pIC50: −log10 of the molar value.

What was measured:
[1] = Cell viability of iSLK.219 cells (AlamarBlue Cell Viability Assay); type: cell-based; settings: iSLK.219 cells harbouring rKSHV.219 virus, human iSLK.219 cells, in presence of Dox and NaB
Protocol: (§1) Figure 5 The effects of positive control cidofovir (CDV), 1 and 2 on human iSLK.219 cells viabilities and on lytic replication of KSHV infecting Vero cells were measured in vitro.
(§2) Human iSLK.219 cells were used to determine the antiviral activity of desired compounds against KSHV. The cells harbor the rKSHV.219 virus that encodes green fluorescent protein (GFP) under control of the elongation factor 1α promoter (EF-1α) and lytic replication of KSHV was reactivated with 1 µg/mL doxycycline (Dox) (Beyotime) and 1.2 mM sodium butyrate (NaB) (Sigama). Cells grown to 70% confluence 96-well tissue culture plates were treated with indicated concentrations of compounds in present of Dox and NaB. Then cell viability was assessed at 48 h post drugs-induction by AlamarBlue® Cell Viability Assay (Invitrogen) according to the manufacturer’s protocol. The luminescent signal was measured using the Envison 2102 Multilabel Reader (Perkin Elmer, Waltham, MA, USA). The 50% cytotoxic concentration (CC50) for each compound was calculated from these dose-response curves using Graphpad5.0 Prism. The results were presented as mean values with standard deviations (n = 3) […]
(§3) The antiviral effects of compounds on KSHV were determined by infectivity assay as previously described. The supernatants from iSLK.219-treated or untreated with the compounds in the presence of Dox and NaB were collected at 48 h. Then, the supernatants were used to infect the Vero cells seeded in a 96-well plate as previously reported using centrifugation at 1500× g for 60 min [4]. The supernatants were then removed and replaced with flash DMEM medium. At 48 h, the expression of GFP per well in Vero cells was detected and analyzed using the Operetta High-Content Screening System (HCS) (Perkin Elmer). Nine image fields per well were recorded by the automated microscope based HCS and the GFP intensity per well was calculated using the Harmony 3.5 software (Perkin Elmer). Data were normalized as the fold change compared to the DMSO control. […]

[2] = system: Kaposi's sarcoma associated herpesvirus (KSHV) lytic replication; experiment: in vitro; type: cell-based; settings: human; CC50 (iSLK.219 cells) / IC50 (KSHV lytic replication); read-out: Selective Index (CC50/IC50)
From the text: (§4) Human gamma herpes viruses such as Kaposi’s sarcoma-associated herpes virus (KSHV) is a type of pathogenic virus related to Kaposi’s sarcoma, like epidemic KS, posttransplant KS, multicentric Castleman’s disease, and primary effusion lymphoma. Anti-infection towards lytic replication of KSHV plays a pivotal role as decreased a risk of KS, which were evidenced in cases of AIDS-associated epidemic KS patients. In our exhaustive study to explore bioactivities of metabolites, an inhibition assay on lytic replication of KSHV was investigated for compounds 1 and 2 referring to the previous experiments. […] The details of the dose-dependent manner were shown in Figure S1, Supplementary Materials. More elaborate procedures of anti-KSHV assay were also stated in Supplementary Materials.
as §1, §2
as §3, with “control. The IC50 (50% effective concentration) values correspond to compound concentrations required to reduce quantitative expression of the intensity of GFP by 50%. The results are presented as the mean values with” for “control.”
(§5) Figure S1. HRESIMS spectrum of japopyrone A (1).

[3] = system: Kaposi’s sarcoma associated herpesvirus (KSHV); experiment: microbe, parasite or virus in culture; type: cell-based; settings: Human gammaherpesvirus 8, Vero, 48 h
From the text: as §4, §1, §2
as §3, with “control. The IC50 (50% effective concentration) values correspond to compound concentrations required to reduce quantitative expression of the intensity of GFP by 50%. The results are presented as the mean values with” for “control.”
as §5

NO production = NO production inhibition assay; type: cell-based
From the text: (§6) Natural products have provided a rich resource for the discovery of new drugs, innovative therapeutic agents, and lead structures. In our studious research towards the discovery for new lead compounds and useful bioactivities from Chinese traditional herbs, several bioactivity screenings such as cytotoxicity assays against five human cancer cell lines (HL-60, SMMC-7721, A-549, MCF-7, and SW480), inhibitory activities on NO production, and inhibitory activities on β-site amyloid precursor protein cleaving enzyme 1 (BACE1), were carried out for compounds 1 and 2.

[4] = biological target: β-site amyloid precursor protein cleaving enzyme 1 (BACE1) (Homo sapiens, UniProt P56817); experiment: BACE1 inhibition assay; type: biochemical
From the text: as §6

[5] = Cytotoxicity assay against human cancer cell line SMMC-7721; type: cell-based; settings: SMMC-7721 cells
From the text: as §6

[6] = Cytotoxicity assay against human cancer cell line MCF-7; type: cell-based; settings: MCF-7 cells
From the text: as §6

[7] = Cytotoxicity assay against human cancer cell line SW480; type: cell-based; settings: SW480 cells
From the text: as §6

[8] = Cytotoxicity assay against human cancer cell line HL-60; type: cell-based; settings: HL-60 cells
From the text: as §6

[9] = Cytotoxicity assay against human cancer cell line A-549; type: cell-based; settings: A-549 cells
From the text: as §6

Sequence of β-site amyloid precursor protein cleaving enzyme 1 (BACE1) (P56817 22-501 limits assumed, species assumed): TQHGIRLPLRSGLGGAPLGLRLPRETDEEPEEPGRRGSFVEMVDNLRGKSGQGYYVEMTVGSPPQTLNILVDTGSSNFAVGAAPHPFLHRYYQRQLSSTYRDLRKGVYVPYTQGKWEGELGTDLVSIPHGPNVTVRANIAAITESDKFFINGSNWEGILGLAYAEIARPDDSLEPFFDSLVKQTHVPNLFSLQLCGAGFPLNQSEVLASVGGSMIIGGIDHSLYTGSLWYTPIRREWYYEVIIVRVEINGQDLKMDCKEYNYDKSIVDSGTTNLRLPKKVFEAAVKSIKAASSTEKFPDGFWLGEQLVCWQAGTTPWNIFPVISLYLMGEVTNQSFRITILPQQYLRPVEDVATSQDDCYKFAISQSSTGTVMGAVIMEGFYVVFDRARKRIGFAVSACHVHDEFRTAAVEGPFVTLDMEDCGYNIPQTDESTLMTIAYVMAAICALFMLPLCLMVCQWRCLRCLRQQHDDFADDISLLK

Compound | CC50 at 48 h [1] | selectivity ratio at 48 h [2] | pIC50 [3] | pIC50 (NO production) | pIC50 [4] | pIC50 [5] | pIC50 [6] | pIC50 [7] | pIC50 [8] | pIC50 [9]
Nc1ccn(C[C@@H](CO)OCP(=O)(O)O)c(=O)n1 [CDV, cidofovir, reference compound] | > 1 µM | > 250 | > 8.40 |  |  |  |  |  |  | 
COc1cc(-c2cc3c(c(=O)o2)C(C)(C)[C@H](C)O3)ccc1O [Compound 1, japopyrone A] | > 200 µM | > 2.34 | 4.07 | < 4.60 | < 4.40 | < 4.40 | < 4.40 | < 4.40 | < 4.40 | < 4.40
COc1ccc(-c2cc3c(c(=O)o2)C(C)(C)[C@H](C)O3)cc1OC [Compound 2, japopyrone B] | > 200 µM | > 6.79 | 4.53 | < 4.60 | < 4.40 | < 4.40 | < 4.40 | < 4.40 | < 4.40 | < 4.40
